Measured values from patent US20260258081A1, “PEPTIDE HAVING HAIR GROWTH PROMOTING ACTIVITY, AND USE THEREOF” (CAREGEN CO., LTD., priority 2019, published 2026).

Columns and labels:
Type in all cases: cell-based
[1] = test system: human hair follicle dermal papilla cells; experiment: β-catenin movement from cytoplasm to nucleus, western blotting of nuclear extract; conditions: peptide 0.5 uM, 5 uM or 50 uM, 1 day, serum-free medium; western blot; FIG. 1
Method: The promoting effect of the peptide consisting of the amino acid sequence of SEQ ID NO: 1 on the proliferation of hair follicle cells was to be confirmed. In detail, human hair follicle dermal papilla cells were seeded in a 96-well plate at a density of 4×10^5 cells/well, and cultured for 16 hours. The culture medium was replaced with a serum-free medium, and the peptide was added thereto at a concentration of 0.5 uM, 5 uM, or 50 uM, and the cells were cultured for 1 day. Here, as a positive control group, 5 uM of Minoxidil which is used as a hair loss treatment was treated. The cells were harvested and nuclei thereof were isolated by using a nuclear protein extraction kit (Merck, USA). Then, western blotting was performed with respect to β-catenin which is a factor related to proliferation of the dermal papilla cells by using β-catenin antibodies (Santacruz biotechnology, USA).

[2] = test system: human dermal papilla cells; experiment: Western blotting of apoptosis-related proteins Bax, Cleaved PARP-1, Cleaved Caspase-3, Bcl2; conditions: peptide 0.5 uM, 5 uM or 50 uM, 1 day, serum-free medium; western blot; FIG. 4
Method: The inhibitory effect of the peptide consisting of the amino acid sequence of SEQ ID NO: 1 on the control of expression of apoptosis-related proteins of hair follicle cells was to be confirmed. In detail, human dermal papilla cells were seeded in a 96-well plate at a density of 4×10^5 cells/well, and cultured for 16 hours. The culture medium was replaced with a serum-free medium, and the peptide was added thereto at a concentration of 0.5 uM, 5 uM, or 50 uM, and the cells were cultured for 1 day. Here, as a positive control group, 5 uM of Minoxidil was treated. Cell lysates were prepared by harvesting the cell, and then, western blotting was performed with respect to Bax, Cleaved PARP-1, Cleaved Caspase-3, or Bcl2 by using Bax antibodies, Cleaved PARP-1 antibodies, Cleaved Caspase-3 antibodies, or Bcl2 antibodies (Santacruz biotechnology, USA), respectively.

[3] = test system: human dermal papilla cells; experiment: PCR expression of growth factors VEGF, bFGF, KGF and HGF; conditions: peptide 0.5 uM, 5 uM or 50 uM, 1 day, serum-free medium, FIG. 3
Method: (§1) The promoting effect of the peptide consisting of the amino acid sequence of SEQ ID NO: 1 on the activity of a growth factor of hair follicle cells was to be confirmed. In detail, human dermal papilla cells were seeded in a 96-well plate at a density of 4×10^5 cells/well, and cultured for 16 hours. The culture medium was replaced with a serum-free medium, and the peptide was added thereto at a concentration of 0.5 uM, 5 uM, or 50 uM, and the cells were cultured for 1 day. Here, as a positive control group, 5 uM of Minoxidil was treated. After the cells were harvested, RNA was extracted therefrom and used for synthesis of cNDA by using a cDNA synthesis kit and PCR pre-mix.

[4] = test system: human hair follicle germinal matrix cells; experiment: PCR expression of MSX2 (activity of germinal matrix cells); conditions: peptide 0.5 uM, 5 uM or 50 uM, 1 day, serum-free medium, FIG. 6
Method: as §1, with “germinal matrix” for “a growth factor of hair follicle”, “human hair follicle” for “human”, “EGF” for “Minoxidil”

[5] = test system: human dermal papilla cells; experiment: PCR expression of DKK-1 under DHT stimulation; conditions: DHT 10 ug/ml as stimulator, peptide 0.5 uM, 5 uM or 50 uM, 1 day, serum-free medium, FIG. 5
Method: The inhibitory effect of the peptide consisting of the amino acid sequence of SEQ ID NO: 1 on the expression of DKK-1, which is a hair loss-related factor, in hair follicle cells was to be confirmed. In detail, human dermal papilla cells were seeded in a 96-well plate at a density of 4×10^5 cells/well, and cultured for 16 hours. After the culture medium was replaced with a serum-free medium, dihydrotestosterone (DHT) as a stimulator was added thereto at a concentration of 10 ug/ml while peptide was added thereto at a concentration of 0.5 uM, 5 uM, or 50 uM. Then, the cells were cultured for 1 day. As a positive control, 50 uM of Finasteride which is a drug inhibiting male hormones was treated. Here, DHT is known as a hair loss hormone that increases the expression of DKK-1, which is a hair loss-inducible factor, by activating an androgen receptor. After the cells were harvested, RNA was extracted therefrom and used for synthesis of cNDA by using a cDNA synthesis kit and PCR pre-mix.

[6] = test system: human hair follicle outer root sheath cells; experiment: PCR expression of HA3-II, Keratin 5, Keratin 14 and Keratin 19 (activity of outer root sheath cells); conditions: peptide 0.5 uM, 5 uM or 50 uM, 1 day, serum-free medium, FIG. 7
Method: as §1, with “of” for “of a growth factor of”, “follicle outer root sheath” for “follicle”, “hair follicle outer root sheath” for “dermal papilla”, “EGF” for “Minoxidil”, “pre-mix. Then, PCR was performed by using the primer of GAPDH shown in Table 2 and primers of HA3-II, Keratin 5, Keratin 14, and Keratin […] shown in Table 6.” for “pre-mix.”

[7] = test system: human dermal papilla cells; experiment: PCR expression of Lef-1, Cyclin D1 and c-Myc (activity of dermal papilla cells); conditions: peptide 0.5 uM, 5 uM or 50 uM, 1 day, serum-free medium, FIG. 2
Method: as §1, with “activity” for “activity of a growth factor”, “cDNA” for “cNDA”, “pre-mix (Intron, Korea).” for “pre-mix.”

TKVFPQD [SEQ ID NO: 1]
movement of β-catenin from the cytoplasm to the nucleus [1]: increased
expression of Bax [2]: decreased
expression of Bcl2 (anti-apoptosis-related protein) [2]: increased
expression of Cleaved Caspase-3 [2]: decreased
expression of Cleaved PARP-1 [2]: decreased
expression of HGF [3]: increased
expression of KGF [3]: increased
expression of VEGF [3]: increased
expression of bFGF [3]: increased
expression of MSX2 [4]: increase
expression pathway of DKK-1 [5]: inhibit
expression of HA3-II [6]: increase
expression of Keratin 5 [6]: increase
expression of Keratin 14 [6]: increase
expression of Keratin 19 [6]: increase
expression of Cyclin D1 [7]: increased
expression of Lef-1 [7]: increased
expression of c-Myc [7]: increased
